The values that follow are results of earlier work, collected in US20130338098A1, “Topical Analgesic Compositions Containing Aliphatic Polyamines and Methods of Using Same” (Dermal Therapy (Barbados) Inc., priority 2000, published 2013).

The conditions of the series: orally, intravenously, intraperitoneally, and intramuscularly.

Regarding `NCCCCN` [putrescine, 1,4-diaminobutane], the Toxicity result was “very low toxicity”.
